The test system of this data set is Aska and SYO1 SyS cell lines. Description: SS18-SSX knockdown (shSSX vs shCt) with scRNA-Seq readout. In kind it is cell-based, human. The source says:
To decouple the intrinsic and extrinsic factor determining the malignant cell states in SyS Applicants first tested whether the core oncogenic and other programs were co-regulated by the genetic fusion driving SyS. Applicants turned to explore the potential regulators of these cellular programs, starting from the genetic driver. To this end, they depleted SS18-SSX in two SyS cell lines (SYO1 and Aska) using shRNA and profiled 12,263 cells with scRNA-Seq. The fusion KD led to massive and highly consistent transcriptional alternation in both cell lines (FIG. 7A, Tables 8, 9). […] Leveraging the single-cell readout Applicants confirmed that the KD impact on the core oncogenic and differentiation programs was decoupled from, and not secondary to, the repression of cellular proliferation (FIG. 7B), such that the impact on the core oncogenic and differentiation programs was observed even when controlling for the cycling status of the cells, and when considering only cycling or non-cycling cells (P<1.54*10^−13, t-test, FIG. 5B, METHODS). Thus, the fusion's impact on cell cycle may be secondary or downstream to its impact on the core oncogenic program. In addition, the fusion KD led to an induction of antigen presentation and cell autonomous immune responses, such as TNF and IFN signaling (P<1*10^−30, mixed-effects, FIG. 8A).
The SyS cell lines Aska and SYO1 were cultured using standard protocols in DMEM medium (Gibco) supplemented with 10-20% fetal bovine serum, 1% Glutamax (Gibco), 1% Sodium Pyruvate (Gibco) and 1% Penicillin-Streptomycin (Gibco) and grown in a humidified incubator at 37° C. with 5% CO2. Cells expressing a pLKO.1 vector with a scrambled shRNA hairpin control (5′-[…] CTTAGG-3′) (SEQ ID NO: 5) or a shSSX hairpin targeting SSX of the SS18-SSX fusion (5′-[…]-3′) (SEQ ID NO: 6) were prepared by lentiviral infection. In brief, lentivirus was prepared by transfection of HEK293T cells with gene delivery vector and the packaging vectors pspax2 and pMD2.G, filtration of media followed by ultracentrifugation, and then resuspension of viral pellet in PBS. Aska and SYO1 cells were infected with lentivirus for 48 hours and then underwent 5 days of selection with puromycin (2 μg/mL) prior to collection for single cell RNA-seq analysis.
The fusion program consists of genes that were differentially expressed in the Aska or SYO1 cells with the SS18-SSX shRNA (shSSX) compared to those with control shRNA (shCt) after 3 or 7 days post-infection. Gene that were previously reported (35, 36) to be bound by the SS18-SSX oncoprotein in at least two SyS cell lines were defined as direct SS18-SSX targets, and were used to stratify the SS18-SSX program to direct and indirect targets.

The mark [1] stands for this setting: SSX shRNA (shSSX) vs control shRNA (shCt), ASKA and SYO1 cells, scRNA-Seq.

Regarding “shSSX: shSSX hairpin targeting SSX of the SS18-SSX fusion (5′-CAGTCACTGACAGTTAATAAA-3′), pLKO.1 lentiviral vector”, under setting [1], the mesenchymal differentiation program result is “induced”, the “overall expression of the cell cycle program” value is on record as “repressed” and the “overall expression of the core oncogenic program” value is on record as “repressed”. Moreover, the “immune responses (topmost differentially expressed pathways)” value (shSSX vs shCt, SyS cells stratified by cycling status) is recorded as “inducing multiple immune responses”.

The values above are taken from US20220154282A1, “DETECTION MEANS, COMPOSITIONS AND METHODS FOR MODULATING SYNOVIAL SARCOMA CELLS” (The Broad Institute, Inc., priority 2019, published 2022).
